How the values were obtained:
[1] = Stability experiment of salt of Formula A (high temperature, high humidity, illumination; HPLC purity and X-ray powder diffraction); assay type: physicochemical; details: for Purity (%): HPLC; for Stability (chemical purity and crystalline form): high temperature, illumination or high humidity for 10 days
Description: Determination method: the test samples of Form A-I, Form B-I, Form C-I, and Form C-Ill of salt of Formula A were placed on the culture dishes respectively, which were uncovered and placed in sealed clean containers. The containers were placed under a temperature of 60° C. for 10 days, under an illumination of 4500 lx±500 lx for 10 days, and under a temperature of 25° C. and a relative humidity of 92.5%±5% for 10 days respectively. Then sampled on the 5th day and the 10th day respectively. Investigated for the purity (using HPLC analysis) and crystalline form (using X-ray powder diffraction analysis) of the samples, and compared the investigation results. The experimental results of the salts and the crystalline forms thereof were shown in Table 1, Table 2, Table 3, and Table 4.9

[2] = Rough solubility test of salt of Formula A in water; assay type: physicochemical; details: Purified Water, 19° C.; for solubility at 5 min: thermodynamic from solid
Description: After each addition of water, the test tube was shaken for 5 minutes until the solid was dissolved completely. Then the rough solubility of the compound was calculated according to the weight of the compound weighed and the total amount of water added.

[3] = Solubility test of salt of Formula A (acetate, Form A-I) and its free base in different solvents; details: thermodynamic from solid
Description: (§1) Then the excess solids were filtered out, and the clear filtrates were used to determine solubility.

physchem = details: water, thermodynamic from solid, Solubility (mg/mL)
Description: as §1

[4] = High humidity (92.5% RH, 25° C.), 5 days, monomalate
[5] = High humidity (92.5% RH, 25° C.), 10 days, monomalate
[6] = High temperature (60° C.), 5 days, monomalate
[7] = High temperature (60° C.), 10 days, monomalate
[8] = Illumination (4500 Lx), 5 days, monomalate
[9] = Illumination (4500 Lx), 10 days, monomalate
[10] = High humidity (92.5% RH, 25° C.), 5 days, malate
[11] = High humidity (92.5% RH, 25° C.), 10 days, malate
[12] = High temperature (60° C.), 5 days, malate
[13] = High temperature (60° C.), 10 days, malate
[14] = Illumination (4500 Lx), 5 days, malate
[15] = Illumination (4500 Lx), 10 days, malate
[16] = 0 day, crystalline form by X-ray powder diffraction
[17] = High humidity (92.5% RH, 25° C.), 5 days
[18] = High humidity (92.5% RH, 25° C.), 5 days, X-ray powder diffraction
[19] = High humidity (92.5% RH, 25° C.), 10 days
[20] = High humidity (92.5% RH, 25° C.), 10 days, X-ray powder diffraction
[21] = High temperature (60° C.), 5 days
[22] = High temperature (60° C.), 5 days, X-ray powder diffraction
[23] = High temperature (60° C.), 10 days
[24] = High temperature (60° C.), 10 days, X-ray powder diffraction
[25] = Illumination (4500 Lx), 5 days, X-ray powder diffraction
[26] = Illumination (4500 Lx), 10 days
[27] = Illumination (4500 Lx), 10 days, X-ray powder diffraction

Structure (SMILES): CS(=O)(=O)N1CCC(c2ccc(-c3cc4nccnc4c(NC[C@@H]4CNCCO4)n3)cc2)CC1.O=C(O)CC(O)C(=O)O [Form C-I, (S)-7-(4-(1-(methylsulfonyl)piperidin-4-yl)phenyl)-N-(morpholin-2-ylmethyl)pyrido[3,4-b]pyrazin-5-amine monomalate]
- Purity (%) ([1]; 0 day, monomalate): 99.71%
- Form ([1]; 0 day, crystalline form by X-ray powder diffraction, monomalate): C-I
- Chiral Purity (%) ([1]; 0 day, monomalate): 99.52%
- Purity (%) [1, 4]: 99.72%
- Form ([1]; High humidity (92.5% RH, 25° C.), 5 days, X-ray powder diffraction, monomalate): C-I
- Chiral Purity (%) [1, 4]: 99.53%
- Purity (%) [1, 5]: 99.68%
- Form ([1]; High humidity (92.5% RH, 25° C.), 10 days, X-ray powder diffraction, monomalate): C-I
- Chiral Purity (%) [1, 5]: 99.53%
- Purity (%) [1, 6]: 99.61%
- Form ([1]; High temperature (60° C.), 5 days, X-ray powder diffraction, monomalate): C-I
- Chiral Purity (%) [1, 6]: 99.52%
- Purity (%) [1, 7]: 99.63%
- Form ([1]; High temperature (60° C.), 10 days, X-ray powder diffraction, monomalate): C-I
- Chiral Purity (%) [1, 7]: 99.54%
- Purity (%) [1, 8]: 99.67%
- Form ([1]; Illumination (4500 Lx), 5 days, X-ray powder diffraction, monomalate): C-I
- Chiral Purity (%) [1, 8]: 99.51%
- Purity (%) [1, 9]: 99.61%
- Form ([1]; Illumination (4500 Lx), 10 days, X-ray powder diffraction, monomalate): C-I
- Chiral Purity (%) [1, 9]: 99.50%
- Stability (chemical purity and crystalline form) [1]: stable
- solubility at 5 min [2]: 480 µg/mL

Structure (SMILES): CS(=O)(=O)N1CCC(c2ccc(-c3cc4nccnc4c(NC[C@@H]4CNCCO4)n3)cc2)CC1.O=C(O)CC(O)C(=O)O [Form C-III, (S)-7-(4-(1-(methylsulfonyl)piperidin-4-yl)phenyl)-N-(morpholin-2-ylmethyl)pyrido[3,4-b]pyrazin-5-amine malate]
- Purity (%) ([1]; 0 day, malate): 99.75%
- Form ([1]; 0 day, crystalline form by X-ray powder diffraction, malate): C-III
- Chiral Purity (%) ([1]; 0 day, malate): 99.39%
- Purity (%) [1, 10]: 99.67%
- Form ([1]; High humidity (92.5% RH, 25° C.), 5 days, X-ray powder diffraction, malate): C-III
- Chiral Purity (%) [1, 10]: 99.39%
- Purity (%) [1, 11]: 99.69%
- Form ([1]; High humidity (92.5% RH, 25° C.), 10 days, X-ray powder diffraction, malate): C-III
- Chiral Purity (%) [1, 11]: 99.38%
- Purity (%) [1, 12]: 99.57%
- Form ([1]; High temperature (60° C.), 5 days, X-ray powder diffraction, malate): C-III
- Chiral Purity (%) [1, 12]: 99.40%
- Purity (%) [1, 13]: 99.70%
- Form ([1]; High temperature (60° C.), 10 days, X-ray powder diffraction, malate): C-III
- Chiral Purity (%) [1, 13]: 99.39%
- Purity (%) [1, 14]: 99.59%
- Form ([1]; Illumination (4500 Lx), 5 days, X-ray powder diffraction, malate): C-III
- Chiral Purity (%) [1, 14]: 99.37%
- Purity (%) [1, 15]: 99.65%
- Form ([1]; Illumination (4500 Lx), 10 days, X-ray powder diffraction, malate): C-III
- Chiral Purity (%) [1, 15]: 99.40%

Structure (SMILES): CS(=O)(=O)N1CCC(c2ccc(-c3cc4nccnc4c(NC[C@@H]4CNCCO4)n3)cc2)CC1 [Free base of Formula A, (S)-7-(4-(1-(methylsulfonyl)piperidin-4-yl)phenyl)-N-(morpholin-2-ylmethyl) pyrido[3,4-b]pyrazin-5-amine]
- solubility at 4 h ([3]; acetone, organic solvent or mixture): 2120 µg/mL
- solubility at 4 h ([3]; ethanol, organic solvent or mixture): 640 µg/mL
- solubility at 4 h ([3]; methanol, organic solvent or mixture): 1580 µg/mL
- solubility at 4 h ([3]; purified water, 37 °C, water): 2.5 µg/mL
- solubility at 4 h ([3]; purified water, water): 2.4 µg/mL
- solubility at 4 h ([3]; tetrahydrofuran, organic solvent or mixture): 10700 µg/mL

Structure (SMILES): CC(=O)O.CS(=O)(=O)N1CCC(c2ccc(-c3cc4nccnc4c(NC[C@@H]4CNCCO4)n3)cc2)CC1 [Form A-I, (S)-7-(4-(1-(methylsulfonyl)piperidin-4-yl)phenyl)-N-(morpholin-2-ylmethyl)pyrido[3,4-b]pyrazin-5-amine monoacetate]
- solubility at 4 h (physchem; 37 °C): 26200 µg/mL
- solubility at 4 h (physchem): 21800 µg/mL
- Chiral Purity (%) ([1]; 0 day): 99.63%
- Purity (%) ([1]; 0 day): 99.39%
- Form [1, 16]: A-I
- Chiral Purity (%) [1, 17]: 99.69%
- Purity (%) [1, 17]: 99.35%
- Form [1, 18]: A-I
- Chiral Purity (%) [1, 19]: 99.71%
- Purity (%) [1, 19]: 99.53%
- Form [1, 20]: A-I
- Chiral Purity (%) [1, 21]: 99.66%
- Purity (%) [1, 21]: 99.31%
- Form [1, 22]: A-I
- Chiral Purity (%) [1, 23]: 99.71%
- Purity (%) [1, 23]: 99.37%
- Form [1, 24]: A-I
- Chiral Purity (%) ([1]; Illumination (4500 Lx), 5 days): 99.69%
- Purity (%) ([1]; Illumination (4500 Lx), 5 days): 99.30%
- Form [1, 25]: A-I
- Chiral Purity (%) [1, 26]: 99.71%
- Purity (%) [1, 26]: 98.99%
- Form [1, 27]: A-I
- Stability (chemical purity and crystalline form) [1]: stable
- solubility at 5 min [2]: 14600 µg/mL

Structure (SMILES): CS(=O)(=O)N1CCC(c2ccc(-c3cc4nccnc4c(NC[C@@H]4CNCCO4)n3)cc2)CC1.Cc1ccc(S(=O)(=O)O)cc1 [Form B-I, (S)-7-(4-(1-(methylsulfonyl)piperidin-4-yl)phenyl)-N-(morpholin-2-ylmethyl)pyrido[3,4-b]pyrazin-5-amine mono p-Tosylate]
- Chiral Purity (%) ([1]; 0 day): 99.71%
- Purity (%) ([1]; 0 day): 99.49%
- Form [1, 16]: B-I
- Chiral Purity (%) [1, 17]: 99.76%
- Purity (%) [1, 17]: 99.47%
- Form [1, 18]: B-I
- Chiral Purity (%) [1, 19]: 99.71%
- Purity (%) [1, 19]: 99.63%
- Form [1, 20]: B-I
- Chiral Purity (%) [1, 21]: 99.70%
- Purity (%) [1, 21]: 99.48%
- Form [1, 22]: B-I
- Chiral Purity (%) [1, 23]: 99.76%
- Purity (%) [1, 23]: 99.51%
- Form [1, 24]: B-I
- Chiral Purity (%) ([1]; Illumination (4500 Lx), 5 days): 99.76%
- Purity (%) ([1]; Illumination (4500 Lx), 5 days): 99.19%
- Form [1, 25]: B-I
- Chiral Purity (%) [1, 26]: 99.72%
- Purity (%) [1, 26]: 99.05%
- Form [1, 27]: B-I
- Rough solubility [2]: 650 µg/mL
